In ChEMBL document CHEMBL1201862, “PubChem BioAssay data set” (2004):
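Protocol summary: plate cells (96-well), add compound at 5 concentrations, incubate 48 h, interpolate endpoints linearly. GI50 is the concentration that inhibits growth by half.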 Calls of active or inactive are those of the source. No stated cut-off is given here; in the data, active = GI50 up to about 1.1 µM and inactive = higher.

How the values were obtained:
Assay in all cases: NCI anticancer screen, dose series, 48 h
SK-OV-3 = system: SK-OV-3
M14 = system: M14
UO-31 = system: UO-31
CAKI-1 = system: CAKI-1
U-251 = system: U-251
SF-539 = system: SF-539
NCI-H23 = system: NCI-H23
IGROV-1 = system: IGROV-1
HCT-116 = system: HCT-116
TK-10 = system: TK-10
MOLT-4 = system: MOLT-4
LOX IMVI = system: LOX IMVI
HT-29 = system: HT-29
T47D = system: T47D
HOP-62 = system: HOP-62
HCT-15 = system: HCT-15
NCI-H522 = system: NCI-H522
OVCAR-8 = system: OVCAR-8
RPMI-8226 = system: RPMI-8226
HL-60 = system: HL-60

Row | Structure (SMILES) | GI50 (SK-OV-3) | GI50 (M14) | GI50 (UO-31) | GI50 (CAKI-1) | GI50 (U-251) | GI50 (SF-539) | GI50 (NCI-H23) | GI50 (IGROV-1) | GI50 (HCT-116) | GI50 (TK-10) | GI50 (MOLT-4) | GI50 (LOX IMVI) | GI50 (HT-29) | GI50 (T47D) | GI50 (HOP-62) | GI50 (HCT-15) | GI50 (NCI-H522) | GI50 (OVCAR-8) | GI50 (RPMI-8226) | GI50 (HL-60)
1 | O=[N+]([O-])c1ccc2nc(=S)[nH]n2c1 | > 100 µM (inactive) | > 100 µM (inactive) | > 100 µM (inactive) | > 100 µM (inactive) | > 100 µM (inactive) | > 100 µM (inactive) | > 100 µM (inactive) | > 100 µM (inactive) | > 100 µM (inactive) | > 100 µM (inactive) | > 100 µM (inactive) | > 100 µM (inactive) | > 100 µM (inactive) | > 100 µM (inactive) | > 100 µM (inactive) | > 100 µM | > 100 µM (inactive) | > 100 µM (inactive) | > 100 µM (inactive) | > 100 µM (inactive)
2 | N#Cc1c(Cl)nc2ccccc2c1N=[N+]=[N-] | 15.5 µM (inactive) | 2.84 µM (inactive) | 4.71 µM (inactive) | 1.68 µM (inactive) | 5.19 µM (inactive) | 2.15 µM (inactive) | 2.52 µM (inactive) | 1.95 µM (inactive) | 1.66 µM (inactive) | 4.82 µM (inactive) | 1.08 µM (active) | 1.67 µM (inactive) | 1.92 µM (inactive) | 2.47 µM (inactive) | 17.3 µM (inactive) | 2.02 µM | 1.99 µM (inactive) | 3.02 µM (inactive) | 2.11 µM (inactive) | 1.8 µM (inactive)
3 | CCOC(=O)c1sc2ncnc(N)c2c1C | > 100 µM (inactive) | 65 µM (inactive) | 82.4 µM (inactive) | 35.9 µM (inactive) | > 100 µM (inactive) | 75.5 µM (inactive) | 70.3 µM (inactive) | 22.1 µM (inactive) | 30.5 µM (inactive) | 34 µM (inactive) | 65.2 µM (inactive) | 43.8 µM (inactive) | 18.2 µM (inactive) | 24.2 µM (inactive) | 80 µM (inactive) | 73.6 µM | 59.3 µM (inactive) | 35 µM (inactive) | 95.5 µM (inactive) | > 100 µM (inactive)
4 | C=CCC1(OCc2ccccc2)C(=O)C(=O)OC1C1COC(C)(C)O1 (centres undefined) | > 100 µM (inactive) | > 100 µM (inactive) | > 100 µM (inactive) | > 100 µM (inactive) | > 100 µM (inactive) | > 100 µM (inactive) | > 100 µM (inactive) | – | > 100 µM (inactive) | > 100 µM (inactive) | > 100 µM (inactive) | > 100 µM (inactive) | > 100 µM (inactive) | > 100 µM (inactive) | > 100 µM (inactive) | > 100 µM | > 100 µM (inactive) | > 100 µM (inactive) | > 100 µM (inactive) | > 100 µM (inactive)
5 | N[C@H]1CCCC[C@@H]1N1C(=O)c2ccccc2C1(O)c1ccc(Cl)cc1 (some centres undefined) | 15.7 µM (inactive) | 9.44 µM (inactive) | 11.6 µM (inactive) | 4.4 µM (inactive) | 12.6 µM (inactive) | 10.4 µM (inactive) | 14.9 µM (inactive) | 12.6 µM (inactive) | 9.79 µM (inactive) | 12.9 µM (inactive) | 5.79 µM (inactive) | 9.38 µM (inactive) | 4.75 µM (inactive) | 4.99 µM (inactive) | 14.5 µM (inactive) | 13.4 µM | 13.8 µM (inactive) | 15.4 µM (inactive) | 2.61 µM (inactive) | 2.41 µM (inactive)
6 | C[C@H]1C(=O)C2=C[C@H]1CCC(=O)[C@]1(C)CCCC(C)(C)[C@H]1C[C@H]2O | 39.6 µM (inactive) | 13.2 µM (inactive) | 27.4 µM (inactive) | 22.4 µM (inactive) | 15.1 µM (inactive) | 15.4 µM (inactive) | 21.8 µM (inactive) | 37.9 µM (inactive) | 31.7 µM (inactive) | 15.3 µM (inactive) | 22.1 µM (inactive) | 17.3 µM (inactive) | 13.9 µM (inactive) | 17.6 µM (inactive) | 97.5 µM (inactive) | 14.3 µM | 0.986 µM (active) | 17.5 µM (inactive) | 12.5 µM (inactive) | 16 µM (inactive)
7 | CN(Cc1ccccc1)/C(=N\C#N)N(Cc1ccccc1)Cc1ccccc1 | 29 µM (inactive) | 20.3 µM (inactive) | 26.5 µM (inactive) | 20.1 µM (inactive) | 28.2 µM (inactive) | 19.8 µM (inactive) | 21.9 µM (inactive) | 24.3 µM (inactive) | 18.7 µM (inactive) | 33 µM (inactive) | 10.5 µM (inactive) | 16.4 µM (inactive) | 14.7 µM (inactive) | 27.7 µM (inactive) | 27.7 µM (inactive) | 26.6 µM | 18.1 µM (inactive) | 29.9 µM (inactive) | 21 µM (inactive) | 30.1 µM (inactive)
